For this test, the system named is apomorphine-induced stereotyped behavior. The test can be described thus: Activity in reducing apomorphine-induced stereotyped behavior (method of Janssen et al.). To be noted: sc. The class given is in vivo, rats (male, Wistar). From the text:
In the following Experiment I, the compounds of this invention were compared with chlorpromazine which is a typical antipsychotic and other known structurally similar compounds in their activity in reducing apomorphine-induced stereotyped behavior.

[1] abbreviates: test sample subcutaneous to rat, after 30 minutes 1.25 mg/kg apomorphine intravenously, observed 5, 10 and 20 minutes later, read-out: ED50.

SMILES strings stand for the structures. Like-named read-outs stand apart in the source and are kept apart here.

Usually ED50 stands for the dose that gives a 50% effect, or the effect in half of the subjects. For the setting “Rattus norvegicus”, `CN(C)CCCN1c2ccccc2Sc2ccc(Cl)cc21` [Chlorpromazine] showed an ED50 of 2.5 mg/kg.
With `CNc1cc(OC)c(C(=O)NC2CCN(Cc3ccccc3)C2C)cc1Cl` (stereo not shown) [Example 3, N-(1-benzyl-2-methylpyrrolidin-3-yl)-5-chloro-2-methoxy-4-methylaminobenzamide], under setting [1], the ED50 is 0.01 mg/kg.
Still for that read-out and setting: then `CCN1CCCC1CNC(=O)c1cc(S(N)(=O)=O)ccc1OC` (stereo not shown) [Sulpiride], with over 100 mg/kg; and `CCN1CCCC1CNC(=O)c1cc(S(=O)(=O)CC)ccc1OC` (stereo not shown) [Sultopiride], with 18 mg/kg.
